Reference: ChEMBL document CHEMBL4425185, “Efforts towards the optimization of a bi-aryl class of potent IRAK4 inhibitors” (Bioorg Med Chem Lett, 2016)
pIC50: −log10 of the molar value.

Assays:
[1] = target: T1, Interleukin-1 receptor-associated kinase 4 (Homo sapiens, UniProt Q9NWZ3); assay: Inhibition of human recombinant N-terminal GST-tagged full-length IRAK4 expressed in baculovirus infected Sf9 insect cells using 5FAM-RKRQGSVRRRVH-COOH as substrate in presence of ATP by IMAP fluorescence polarization assay
T1 sequence (Q9NWZ3 whole entry): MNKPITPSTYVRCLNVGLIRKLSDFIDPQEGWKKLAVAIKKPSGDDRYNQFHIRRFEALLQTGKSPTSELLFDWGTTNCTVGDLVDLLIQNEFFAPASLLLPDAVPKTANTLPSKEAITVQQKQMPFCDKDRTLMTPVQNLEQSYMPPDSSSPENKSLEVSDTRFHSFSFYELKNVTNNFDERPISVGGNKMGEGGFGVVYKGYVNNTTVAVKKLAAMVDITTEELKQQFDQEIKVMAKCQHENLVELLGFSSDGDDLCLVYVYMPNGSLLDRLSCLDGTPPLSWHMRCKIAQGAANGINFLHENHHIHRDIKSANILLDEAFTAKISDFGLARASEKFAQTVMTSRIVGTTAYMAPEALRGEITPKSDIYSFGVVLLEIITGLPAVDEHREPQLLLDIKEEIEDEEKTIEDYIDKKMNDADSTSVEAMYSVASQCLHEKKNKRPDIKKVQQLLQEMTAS

[2] = target: T1, Interleukin-1 receptor-associated kinase 4; assay: Inhibition of […] IRAK4 in human THP1-XBlue cells assessed as decrease in NF-kappaB level preincubated for 1 hr followed by stimulation with LPS for 4 to 5 hrs measured after 30 mins by spectrophotometric analysis; format: cell-based
[3] = target: Voltage-gated inwardly rectifying potassium channel KCNH2 (Homo sapiens, UniProt Q12809); assay: Inhibition of MK499 binding to human ERG
[4] = Apparent permeability in dog MDCK2-MDR1 cells; format: ADME, cell-based, Canis lupus familiaris; settings: MDCK-MDR1
[5] = target: T2, Interleukin-1 receptor-associated kinase 4 (Homo sapiens) (UniProt Q9NWZ3); assay: Ratio of IC50 for IRAK4 inhibition in human THP1-XBlue cells to IC50 for inhibition of human IRAK4; format: cell-based
T2 sequence (whole entry): T1 sequence (Q9NWZ3 whole entry)

[6] = Clearance in rat; format: ADME; settings: in vivo
[7] = Clearance in rat at 1.45 mg/kg, iv; format: ADME, organism-based; settings: in vivo
[8] = tested on: Cytochrome P450; assay: Inhibition of CYP450 (unknown origin); format: ADME, protein assay; settings: human
[9] = tested on: Cytochrome P450; assay: Induction of CYP450 (unknown origin); format: ADME; settings: human
[10] = species: Homo sapiens; assay: Selectivity for human IRAK4 over GST-tagged human MINK1
[11] = species: Homo sapiens; assay: Selectivity for human IRAK4 over human LRRK2
[12] = Clearance in rat at 0.15 mg/kg, iv; format: ADME, organism-based; settings: in vivo
[13] = tested on: MDR1; assay: Efflux ratio of permeability in dog MDCK2-MDR1 cells; format: ADME, cell-based, Canis lupus familiaris; settings: MDCK-MDR1
[14] = Clearance in rat at 2 mg/kg, iv; format: ADME, organism-based; settings: in vivo

Chain of Voltage-gated inwardly rectifying potassium channel KCNH2 (Q12809 whole entry): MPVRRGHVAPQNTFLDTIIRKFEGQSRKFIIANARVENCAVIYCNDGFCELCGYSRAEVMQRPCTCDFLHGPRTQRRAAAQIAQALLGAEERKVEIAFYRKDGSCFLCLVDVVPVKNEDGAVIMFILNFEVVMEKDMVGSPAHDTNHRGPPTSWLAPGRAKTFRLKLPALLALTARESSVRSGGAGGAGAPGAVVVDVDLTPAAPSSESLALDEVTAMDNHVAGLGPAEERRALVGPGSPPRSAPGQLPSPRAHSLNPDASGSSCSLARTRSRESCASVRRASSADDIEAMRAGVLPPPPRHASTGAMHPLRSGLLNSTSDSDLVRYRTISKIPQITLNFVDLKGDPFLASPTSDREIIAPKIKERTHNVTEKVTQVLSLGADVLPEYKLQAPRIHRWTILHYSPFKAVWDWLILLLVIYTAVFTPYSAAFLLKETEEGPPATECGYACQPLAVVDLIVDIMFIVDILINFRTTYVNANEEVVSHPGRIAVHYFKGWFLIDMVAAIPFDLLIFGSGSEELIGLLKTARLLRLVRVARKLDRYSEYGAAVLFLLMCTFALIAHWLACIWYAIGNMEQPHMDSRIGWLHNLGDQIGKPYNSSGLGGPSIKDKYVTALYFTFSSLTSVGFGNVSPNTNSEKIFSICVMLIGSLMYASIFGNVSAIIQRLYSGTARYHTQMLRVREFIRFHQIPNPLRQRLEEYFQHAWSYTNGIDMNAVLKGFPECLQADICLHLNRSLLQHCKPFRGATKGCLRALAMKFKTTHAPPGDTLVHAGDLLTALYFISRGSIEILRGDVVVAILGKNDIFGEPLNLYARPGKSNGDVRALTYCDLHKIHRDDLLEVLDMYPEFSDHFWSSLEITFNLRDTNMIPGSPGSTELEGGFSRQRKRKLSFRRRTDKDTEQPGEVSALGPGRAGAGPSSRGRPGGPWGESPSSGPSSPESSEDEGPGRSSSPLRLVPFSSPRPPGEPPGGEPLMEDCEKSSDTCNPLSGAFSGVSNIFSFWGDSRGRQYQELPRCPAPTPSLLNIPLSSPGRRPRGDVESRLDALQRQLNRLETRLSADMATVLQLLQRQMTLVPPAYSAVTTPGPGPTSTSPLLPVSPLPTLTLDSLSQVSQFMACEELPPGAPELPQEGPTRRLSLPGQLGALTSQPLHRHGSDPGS

SMILES: Cn1cc(NC(=O)c2cc(-c3ccnc(NCC4CC4)c3)ccn2)c(C(N)=O)n1
- pIC50 [1]: < 5.30

SMILES: CN(C)[C@H]1CN(C(=O)c2nn(C)cc2NC(=O)c2cccc(-c3ccnc(NCC4CC4)c3)n2)C[C@@H]1O
- pIC50 [2]: 6.27
- pIC50 [3]: < 4.22
- Papp [4]: 11 ×10⁻⁶ cm/s
- Ratio IC50 [5]: < 3
- clearance [6]: 37 mL/min/kg

SMILES: Cn1cc(NC(=O)c2cccc(-c3ccnc(NCC4CC4)c3)n2)c(C(=O)NCc2ncc[nH]2)n1
- pIC50 [1]: 5.79

SMILES: Cn1cc(NC(=O)c2cccc(-c3cccnc3)n2)c(C(N)=O)n1
- clearance [6]: 54 mL/min/kg

SMILES: Cn1cc(NC(=O)c2cccc(-c3cnccc3Cl)n2)c(C(N)=O)n1
- pIC50 [1]: 6.17

SMILES: Cn1cc(NC(=O)c2cccc(-c3ccnc(NCC4CC4)c3)c2)c(C(N)=O)n1
- pIC50 [2]: 6.37
- pIC50 [3]: 5.21
- clearance [7]: 32 mL/min/kg
- Ratio IC50 [5]: < 3
- pIC50 [1]: 6.73
- clearance [6]: 25 mL/min/kg

SMILES: Cn1cc(NC(=O)c2cccc(-c3ccnc(NCC4CC4)c3)n2)c(C(=O)NCc2ccncc2)n1
- pIC50 [1]: < 5.30

SMILES: Cn1cc(NC(=O)c2cccc(-c3ccccc3)n2)c(C(N)=O)n1
- pIC50 [1]: 5.44

SMILES: Cn1cc(NC(=O)c2cccc(-c3ccnc(NCC4CC4)c3)n2)c(C(=O)NCc2ccccc2)n1
- pIC50 [1]: < 5.30

SMILES: Cn1cc(NC(=O)c2cccc(-c3cncc(Cl)c3)n2)c(C(N)=O)n1
- pIC50 [2]: 6.69
- Ratio IC50 [5]: < 3
- pIC50 [1]: 6.97

SMILES: CN(C)CCCNC(=O)c1nn(C)cc1NC(=O)c1cccc(-c2ccnc(NCC3CC3)c2)n1
- pIC50 [1]: 6.27

SMILES: Cn1cc(NC(=O)c2cccc(-c3ccnc(NCC(F)(F)F)c3)n2)c(C(N)=O)n1
- pIC50 [2]: 6.53
- Ratio IC50 [5]: < 3

SMILES: CC(C)CNC(=O)c1nn(C)cc1NC(=O)c1cccc(-c2ccnc(NCC3CC3)c2)n1
- pIC50 [1]: < 5.30

SMILES: Cn1cc(NC(=O)c2cccc(-c3ccnc(NCC4CC4)c3)n2)c(C(=O)NC2CCCC2)n1
- pIC50 [1]: < 5.30

SMILES: Cn1cc(NC(=O)c2cccc(-c3ccc(C4CC4)nc3)n2)c(C(N)=O)n1
- pIC50 [2]: 6.51
- pIC50 [3]: < 4.22
- Ratio IC50 [5]: < 3
- pIC50 [1]: 6.92
- clearance [6]: 30 mL/min/kg

SMILES: Cn1cc(-c2cccc(C(=O)Nc3cn(C)nc3C(N)=O)n2)cn1
- inhibition (INH) [8]: Not Active
- pIC50 [2]: 6.86
- Activity [9]: Not Active
- Selectivity ratio [10]: < 10
- pIC50 [3]: < 4.22
- Papp [4]: 29 ×10⁻⁶ cm/s
- Selectivity ratio [11]: < 10
- clearance [12]: 53 mL/min/kg
- Ratio IC50 [5]: < 3
- pIC50 [1]: 7.44
- efflux ratio [13]: 0.5
- clearance [6]: 53 mL/min/kg

SMILES: Cn1cc(NC(=O)c2cccc(-c3ccnc(NCC4CC4)c3)n2)c(C(=O)N2CC(CN)C2)n1
- pIC50 [2]: 6.32
- pIC50 [3]: 4.40
- Ratio IC50 [5]: < 3
- clearance [6]: 6 mL/min/kg

SMILES: Cn1cc(NC(=O)c2ccnc(-c3ccnc(NCC4CC4)c3)n2)c(C(N)=O)n1
- pIC50 [3]: 5.72
- clearance [6]: 43 mL/min/kg

SMILES: Cn1cc(NC(=O)c2cccc(-c3ccnc(NCC4CC4)c3)n2)c(C(=O)N2CCC(O)C2)n1 (stereo not given)
- pIC50 [1]: < 5.30

SMILES: CN1CCCC(CNC(=O)c2nn(C)cc2NC(=O)c2cccc(-c3ccnc(NCC4CC4)c3)n2)C1 (stereo not given)
- pIC50 [3]: 4.92
- clearance [6]: 21 mL/min/kg

SMILES: Cn1cc(NC(=O)c2cccc(-c3ccnc(NCC4CC4)c3)n2)c(C(N)=O)n1
- clearance [14]: 33 mL/min/kg
- inhibition (INH) [8]: Not Active
- pIC50 [2]: 6.77
- Activity [9]: Not Active
- Selectivity ratio [10]: < 10
- pIC50 [3]: 5.54
- Papp [4]: 18 ×10⁻⁶ cm/s
- Selectivity ratio [11]: < 10
- Ratio IC50 [5]: < 3
- efflux ratio [13]: 0.3
- clearance [6]: 17 mL/min/kg

SMILES: Cn1cc(NC(=O)c2cccc(-c3ccnc(N)c3)n2)c(C(N)=O)n1
- clearance [14]: 69 mL/min/kg
- pIC50 [2]: 6.59
- pIC50 [3]: 4.60
- Papp [4]: 23 ×10⁻⁶ cm/s
- Ratio IC50 [5]: < 3
- clearance [6]: 24 mL/min/kg

SMILES: Cn1cc(NC(=O)c2cccc(-c3ccsc3)n2)c(C(N)=O)n1
- pIC50 [1]: 6.40

SMILES: Cn1cc(NC(=O)c2cncc(-c3ccnc(NCC4CC4)c3)c2)c(C(N)=O)n1
- pIC50 [3]: 5.28
- clearance [7]: 31 mL/min/kg
- clearance [6]: 53 mL/min/kg

SMILES: Cn1cc(NC(=O)c2cnn3ccc(N4CCNCC4)nc23)c(C(N)=O)n1
- inhibition (INH) [8]: Not Active
- pIC50 [2]: 6.82
- Activity [9]: Not Active
- Selectivity ratio [10]: < 10
- pIC50 [3]: < 4.22
- Papp [4]: 1.6 ×10⁻⁶ cm/s
- Selectivity ratio [11]: < 10
- clearance [12]: 39 mL/min/kg
- Ratio IC50 [5]: < 3
- pIC50 [1]: 7.42
- efflux ratio [13]: 1
- clearance [6]: 3 mL/min/kg
